According to ChEMBL document CHEMBL1201862, “PubChem BioAssay data set” (2004):
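Assay format: 96-well plates, 48-hour exposure. The concentration for 50% growth inhibition is given as GI50.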 The source made the active and inactive calls. No stated cut-off is given here; in the data, active = GI50 up to about 1.1 µM and inactive = higher.

Legend:
Assay in all cases: NCI tumour cell line growth inhibition, 48 h
LXFL 529 = test system: LXFL 529
SK-MEL-28 = test system: SK-MEL-28
RXF 393 = test system: RXF 393
HCT-15 = test system: HCT-15
NCI-H460 = test system: NCI-H460
NCI-H23 = test system: NCI-H23
HT-29 = test system: HT-29
SF-268 = test system: SF-268
SNB-75 = test system: SNB-75
HOP-92 = test system: HOP-92
KM12 = test system: KM12
SK-MEL-5 = test system: SK-MEL-5
HOP-62 = test system: HOP-62
OVCAR-3 = test system: OVCAR-3
U-251 = test system: U-251
M14 = test system: M14
K562 = test system: K562

SMILES | GI50 (LXFL 529) | GI50 (SK-MEL-28) | GI50 (RXF 393) | GI50 (HCT-15) [µM] | GI50 (NCI-H460) | GI50 (NCI-H23) | GI50 (HT-29) | GI50 (SF-268) | GI50 (SNB-75) | GI50 (HOP-92) | GI50 (KM12) | GI50 (SK-MEL-5) | GI50 (HOP-62) | GI50 (OVCAR-3) | GI50 (U-251) | GI50 (M14) | GI50 (K562)
COc1ccc(O)cc1C(O)c1ccccc1 (centres undefined) | > 100 µM (inactive) | > 100 µM (inactive) | > 100 µM (inactive) | > 100 | > 100 µM (inactive) | > 100 µM (inactive) | > 100 µM (inactive) | > 100 µM (inactive) | > 100 µM (inactive) | > 100 µM (inactive) | > 100 µM (inactive) | > 100 µM (inactive) | > 100 µM (inactive) | > 100 µM (inactive) | > 100 µM (inactive) | > 100 µM (inactive) | > 100 µM (inactive)
COc1ccc(C2=Nc3ccccc3N=C(SC)C2)cc1 | 46.1 µM (inactive) | > 100 µM (inactive) | 62.5 µM (inactive) | 33.7 | 24.5 µM (inactive) | 32.8 µM (inactive) | 38.5 µM (inactive) | > 100 µM (inactive) | 74 µM (inactive) | 15.6 µM (inactive) | 27.5 µM (inactive) | 39.8 µM (inactive) | > 100 µM (inactive) | 54.1 µM (inactive) | 32.2 µM (inactive) | 59.7 µM (inactive) | 20.8 µM (inactive)
O=C1Nc2ccccc2N/C1=C\C(=O)c1ccccc1O | > 100 µM (inactive) | > 100 µM (inactive) | > 100 µM (inactive) | > 100 | > 100 µM (inactive) | > 100 µM (inactive) | > 100 µM (inactive) | > 100 µM (inactive) | > 100 µM (inactive) | > 100 µM (inactive) | > 100 µM (inactive) | > 100 µM (inactive) | > 100 µM (inactive) | > 100 µM (inactive) | > 100 µM (inactive) | > 100 µM (inactive) | > 100 µM (inactive)
O=C(C(=O)c1cc2ccccc2[nH]1)c1cc2ccccc2[nH]1 | > 210 µM (inactive) | 149 µM (inactive) | 91.4 µM (inactive) | 94.2 | > 321 µM (inactive) | > 255 µM (inactive) | > 347 µM (inactive) | > 347 µM (inactive) | > 347 µM (inactive) | > 127 µM (inactive) | > 347 µM (inactive) | > 301 µM (inactive) | > 183 µM (inactive) | 12.8 µM (inactive) | > 347 µM (inactive) | 213 µM (inactive) | > 332 µM (inactive)
Cc1c(Cl)cccc1NC(=O)C(=O)C1C(=O)CC(C)(C)CC1=O | > 100 µM (inactive) | > 100 µM (inactive) | > 100 µM (inactive) | > 100 | > 100 µM (inactive) | > 100 µM (inactive) | > 100 µM (inactive) | > 100 µM (inactive) | > 100 µM (inactive) | > 100 µM (inactive) | > 100 µM (inactive) | > 100 µM (inactive) | > 100 µM (inactive) | > 100 µM (inactive) | > 100 µM (inactive) | > 100 µM (inactive) | > 100 µM (inactive)
CC(C)=CC1C[C@H](C2CC=C3C2(C)CCC2[C@@]3(C)C(=O)CC3[C@]2(C)C=CC(=O)[C@]3(C)CO)CO1 (some centres undefined) | 3.45 µM (inactive) | 5.2 µM (inactive) | 10.4 µM (inactive) | 14.4 | 11.6 µM (inactive) | 5.42 µM (inactive) | 4.15 µM (inactive) | 5.82 µM (inactive) | 8.04 µM (inactive) | 16.6 µM (inactive) | 5.92 µM (inactive) | 10 µM (inactive) | 12.7 µM (inactive) | 4.84 µM (inactive) | 8.83 µM (inactive) | 3.12 µM (inactive) | 4.34 µM (inactive)
O=c1c2cccc3cccc(c4oc5c6cccc7cccc(c(=O)c5c14)c76)c32 | 11.1 µM (inactive) | 13.3 µM (inactive) | 11.2 µM (inactive) | 11.4 | 12.5 µM (inactive) | 13.2 µM (inactive) | 13.8 µM (inactive) | 13 µM (inactive) | 14 µM (inactive) | 8.22 µM (inactive) | 13.8 µM (inactive) | 15.2 µM (inactive) | > 100 µM (inactive) | 12 µM (inactive) | 12.7 µM (inactive) | 12.4 µM (inactive) | > 10 µM (inactive)
O=C1NC2(CCCCCC2)C2CCCCCCC12O (centres undefined) | > 100 µM (inactive) | > 100 µM (inactive) | > 100 µM (inactive) | > 100 | > 100 µM (inactive) | > 100 µM (inactive) | > 100 µM (inactive) | > 100 µM (inactive) | > 100 µM (inactive) | > 100 µM (inactive) | > 100 µM (inactive) | > 100 µM (inactive) | > 100 µM (inactive) | > 100 µM (inactive) | > 100 µM (inactive) | > 100 µM (inactive) | > 100 µM (inactive)
COc1ccc(CN[C@H]2CCc3cc(OC)c(OC)c(OC)c3-c3ccc(SC)c(=O)cc32)c(OC)c1OC | 0.0447 µM (active) | 0.0443 µM (active) | 0.0181 µM (active) | 0.0266 | 0.026 µM (active) | 0.0219 µM (active) | 0.0205 µM (active) | 0.0366 µM (active) | 0.0184 µM (active) | 0.0681 µM (active) | 0.0308 µM (active) | 0.0326 µM (active) | 0.0319 µM (active) | 0.0235 µM (active) | 0.0194 µM (active) | 0.0308 µM (active) | 0.0346 µM (active)
C/C(CC(=O)Nc1ccc([N+](=O)[O-])cc1)=N\Nc1ccc([N+](=O)[O-])cc1[N+](=O)[O-] | 20.9 µM (inactive) | > 100 µM (inactive) | > 100 µM (inactive) | 7.66 | 44.4 µM (inactive) | > 100 µM (inactive) | > 100 µM (inactive) | 62.1 µM (inactive) | > 100 µM (inactive) | 73.6 µM (inactive) | 29.3 µM (inactive) | 47.4 µM (inactive) | 50.1 µM (inactive) | 98.2 µM (inactive) | > 100 µM (inactive) | > 100 µM (inactive) | 20.2 µM (inactive)
CCC(=C(c1ccc(OCc2ccccc2)cc1)c1ccc(OCc2ccccc2)cc1)c1ccc(OC)cc1 | > 100 µM (inactive) | > 100 µM (inactive) | > 100 µM (inactive) | > 100 | > 100 µM (inactive) | > 100 µM (inactive) | > 100 µM (inactive) | > 100 µM (inactive) | > 100 µM (inactive) | > 100 µM (inactive) | > 100 µM (inactive) | > 100 µM (inactive) | > 100 µM (inactive) | > 100 µM (inactive) | > 100 µM (inactive) | > 100 µM (inactive) | > 100 µM (inactive)
C=CCC1=C(C)C[C@@H]2CCC(=O)C=C12 | > 100 µM (inactive) | > 100 µM (inactive) | > 100 µM (inactive) | > 100 | > 100 µM (inactive) | > 100 µM (inactive) | > 100 µM (inactive) | > 100 µM (inactive) | > 100 µM (inactive) | > 100 µM (inactive) | > 100 µM (inactive) | > 100 µM (inactive) | > 100 µM (inactive) | > 100 µM (inactive) | > 100 µM (inactive) | > 100 µM (inactive) | > 100 µM (inactive)
